Test results: ChEMBL document CHEMBL5620362 (Eur J Med Chem, 2023)
pIC50: −log10 of the molar value. The source made the active and inactive calls. The rule behind the calls is not given here.

Tests used:
HPAF-II [1] = assay: Antitumor activity against human HPAF-II cells measured after 72 hrs; format: functional, cell-based
[2] = target: T1, Nuclear receptor ROR-gamma (Homo sapiens) (UniProt P51449); assay: Antagonist activity at Gal4-tagged ROR-gamma LBD (unknown origin) transfected in HEK293T cells assessed as reduction in luciferase activity at 0.1 to 1 uM incubated for 24 hrs by Renilla luciferase reporter gene assay; format: cell-based; details: filed as antagonist, dose 0.1-1 µM
T1 sequence (whole entry): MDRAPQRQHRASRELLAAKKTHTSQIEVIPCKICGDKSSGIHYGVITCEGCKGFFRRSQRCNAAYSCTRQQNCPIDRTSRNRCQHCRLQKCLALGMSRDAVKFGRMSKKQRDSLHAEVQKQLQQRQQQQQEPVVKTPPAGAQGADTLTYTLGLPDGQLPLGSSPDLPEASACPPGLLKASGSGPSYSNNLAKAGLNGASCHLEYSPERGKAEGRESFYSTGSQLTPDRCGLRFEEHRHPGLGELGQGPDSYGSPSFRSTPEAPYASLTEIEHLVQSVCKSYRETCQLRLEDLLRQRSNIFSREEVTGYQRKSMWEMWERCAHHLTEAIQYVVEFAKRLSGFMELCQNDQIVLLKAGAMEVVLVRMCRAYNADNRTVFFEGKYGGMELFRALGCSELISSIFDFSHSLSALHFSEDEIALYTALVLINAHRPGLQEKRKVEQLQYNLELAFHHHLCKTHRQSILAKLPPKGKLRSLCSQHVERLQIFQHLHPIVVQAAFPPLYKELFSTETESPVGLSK

HPAF-II [3] = assay: Induction of apoptosis in human HPAF-II cells assessed as early apoptotic cells at 10 uM incubated for 48 hrs by Annexin V-FITC/PI staining based flow cytometry (reference value: 0.90 %); format: functional
HPAF-II [4] = assay: Induction of apoptosis in human HPAF-II cells assessed as necrotic cells at 10 uM incubated for 48 hrs by Annexin V-FITC/PI staining based flow cytometry (reference value: 8.09 %); format: functional
HPAF-II [5] = assay: Induction of apoptosis in human HPAF-II cells assessed as early apoptotic cells at 1 uM incubated for 48 hrs by Annexin V-FITC/PI staining based flow cytometry (reference value: 0.90 %); format: functional
HPAF-II [6] = assay: Induction of apoptosis in human HPAF-II cells assessed as viable cells at 0.1 uM incubated for 48 hrs by Annexin V-FITC/PI staining based flow cytometry (reference value: 89.73 %); format: functional; details: read-out: Activity
HPAF-II [7] = assay: Induction of apoptosis in human HPAF-II cells assessed as early apoptotic cells at 0.1 uM incubated for 48 hrs by Annexin V-FITC/PI staining based flow cytometry (reference value: 0.90 %); format: functional
HPAF-II [8] = assay: Induction of apoptosis in human HPAF-II cells assessed as viable cells at 0.01 uM incubated for 48 hrs by Annexin V-FITC/PI staining based flow cytometry (reference value: 89.73 %); format: functional; details: read-out: Activity
HPAF-II [9] = assay: Induction of apoptosis in human HPAF-II cells assessed as early apoptotic cells at 0.01 uM incubated for 48 hrs by Annexin V-FITC/PI staining based flow cytometry (reference value: 0.90 %); format: functional
NCI-H23 [10] = assay: Induction of apoptosis in human NCI-H23 cells assessed as viable cells at 10 uM incubated for 48 hrs by Annexin V-FITC/PI staining based flow cytometry (reference value: 92.16 %); format: functional; details: read-out: Activity
NCI-H23 [11] = assay: Induction of apoptosis in human NCI-H23 cells assessed as early apoptotic cells at 10 uM incubated for 48 hrs by Annexin V-FITC/PI staining based flow cytometry (reference value: 4.17 %); format: functional
NCI-H23 [12] = assay: Induction of apoptosis in human NCI-H23 cells assessed as late apoptotic cells at 1 uM incubated for 48 hrs by Annexin V-FITC/PI staining based flow cytometry (reference value: 2.89 %); format: functional
NCI-H23 [13] = assay: Induction of apoptosis in human NCI-H23 cells assessed as early apoptotic cells at 0.1 uM incubated for 48 hrs by Annexin V-FITC/PI staining based flow cytometry (reference value: 4.17 %); format: functional
EOL1 = assay: Anticancer activity against human EOL1 cells incubated for 72 hrs; format: functional, cell-based
MV4-11 = assay: Anticancer activity against human MV4-11 cells incubated for 72 hrs; format: functional, cell-based
CFPAC-1 = assay: Anticancer activity against human CFPAC-1 cells incubated for 72 hrs; format: functional, cell-based
NCI-H358 = assay: Induction of apoptosis in human NCI-H358 cells 1 uM incubated for 48 hrs by Annexin V-FITC/PI staining based flow cytometry; format: functional, cell-based
HPAF-II [14] = assay: Induction of apoptosis in human HPAF-II cells assessed as increase in cleaved PARP level at 0.1 to 1 uM incubated for 48 hrs by Western blot analysis; format: functional, cell-based; details: dose 0.1-1 µM
HPAF-II [15] = assay: Downregulation of phosphorylated ERK expression in human HPAF-II cells at 0.1 to 1 uM incubated for 48 hrs by Western blot analysis; format: functional, cell-based; details: dose 0.1-1 µM
HPAF-II [16] = assay: Downregulation of phosphorylated AKT expression in human HPAF-II cells at 0.1 to 1 uM incubated for 48 hrs by Western blot analysis; format: functional, cell-based; details: dose 0.1-1 µM
MIA PaCa-2 = assay: Inhibition of colony formation in human MIA PaCa-2 cells harboring siROR-gamma 0.1 uM incubated for 6 to 7 days by crystal violet staining based analysis; format: functional, cell-based; details: time 6-7 day
HPAF-II [17] = assay: Induction of apoptosis in human HPAF-II cells harboring siROR-gamma at 0.1 uM incubated for 24 hrs by Annexin V-FITC/PI staining based flow cytometry; format: functional, cell-based
HPAF-II [18] = assay: Downregulation of ERK phosphorylation level in human HPAF-II cells harboring siROR-gamma at 0.1 uM by Western blot analysis; format: functional, cell-based
[19] = Half life in ICR mouse at 3 mg/kg, iv; format: ADME, organism-based; details: in vivo
[20] = AUC (infinity) in ICR mouse at 3 mg/kg, iv; format: ADME, organism-based; details: in vivo
[21] = MRT (infinity) in ICR mouse at 3 mg/kg, iv; format: ADME, organism-based; details: in vivo
[22] = Half life in ICR mouse at 10 mg/kg, po; format: ADME, organism-based; details: in vivo
[23] = Cmax in ICR mouse at 10 mg/kg, po; format: ADME, organism-based; details: in vivo
[24] = AUC (infinity) in ICR mouse at 10 mg/kg, po; format: ADME, organism-based; details: in vivo
[25] = MRT (infinity) in ICR mouse at 10 mg/kg, po; format: ADME, organism-based; details: in vivo
HPAF-II [26] = assay: Antitumor activity against human HPAF-II cells xenografted in nude Balb/cA mouse assessed as tumor growth inhibition at 150 mg/kg, po qd measured for 12 days relative to control; format: functional; set-up: scale not given: the % may be the effect or the level left; details: time 12 day
HPAF-II [27] = assay: Antitumor activity against human HPAF-II cells xenografted in nude Balb/cA mouse assessed as tumor growth inhibition at 180 mg/kg, po qd measured for 12 days relative to control; format: functional; set-up: scale not given: the % may be the effect or the level left; details: time 12 day
[28] = Toxicity in nude Balb/cA mouse xenografted with human HPAF-II cells assessed as redness at injection site at 15 mg/kg, ip qd measured for 12 days; format: organism-based; details: in vivo, 288 h, time 12 day
[29] = Toxicity in nude Balb/cA mouse xenografted with human HPAF-II cells assessed as swelling at injection site at 15 mg/kg, ip qd measured for 12 days; format: organism-based; details: in vivo, 288 h, time 12 day

C=C(C)[C@@H]1CC[C@]2(C(=O)NCCCN(C)C)CC[C@]3(C)[C@H](CC[C@@H]4[C@@]5(C)CC[C@H](O)C(C)(C)[C@@H]5CC[C@]43C)[C@@H]12
pIC50 (HPAF-II [1]): 7.05 | Activity [2]: Active | Activity (HPAF-II [3]): 48.86% | Activity (HPAF-II [4]): 3.33% | Activity (HPAF-II [5]): 39.49% | viability at 0.1 µM (HPAF-II [6]): 59.3% | Activity (HPAF-II [7]): 23.73% | viability at 0.01 µM (HPAF-II [8]): 82.6% | Activity (HPAF-II [9]): 5.34% | viability at 10 µM (NCI-H23 [10]): 6.54% | Activity (NCI-H23 [11]): 64.02% | Activity (NCI-H23 [12]): 18.15% | Activity (NCI-H23 [13]): 3.45% | Activity (EOL1): Active | Activity (MV4-11): Active | Activity (CFPAC-1): Active | Activity (NCI-H358): Active | Activity (HPAF-II [14]): Active | Activity (HPAF-II [15]): Active | Activity (HPAF-II [16]): Active | inhibition (MIA PaCa-2): inactive | Activity (HPAF-II [17]): inactive | Activity (HPAF-II [18]): Active | half-life [19]: 4.5 h | AUC(0-inf) [20]: 3050 ng·h/mL | MRT inf [21]: 5.22 h | half-life [22]: 11.9 h | Cmax [23]: 114 ng/mL | AUC(0-inf) [24]: 2050 ng·h/mL | MRT inf [25]: 16.6 h | Activity (HPAF-II [26]): 39% | Activity (HPAF-II [27]): 49% | Activity [28]: Toxic | Activity [29]: Toxic
